Activity calls are given as the source filed them. The rule behind the calls is not given here.
What was measured:
L cells = experiment: Cytotoxic activity against Detroit 98 or mouse L cell culture at 10E-4 M concentration; No significant activity; format: functional, cell-based; settings: L929
[1] = test system: Thymidine kinase (Human alphaherpesvirus 1); experiment: Compound was tested for affinity against HSV-1 thymidine kinase; Low activity
Human adenovirus 5 = experiment: Compound was tested for antiviral activity against adenovirus type 5; little or no activity; format: functional, organism-based
Human alphaherpesvirus 1 = experiment: Compound was tested for plaque-inhibition against HSV-1 in cell culture at 50 ug per disk; Inactive; format: functional, organism-based
Vaccinia virus = experiment: Compound was tested for antiviral activity against vaccinia virus; little or no activity; format: functional, organism-based; settings: Orthopoxvirus vaccinia
[2] = test system: Thymidine kinase (Human alphaherpesvirus 1); experiment: Compound was tested for affinity against HSV-1 Thymidine kinase; Low activity

Row | Compound | Cytotoxicity (L cells) | Activity [1] | Activity (Human adenovirus 5) | Activity (Human alphaherpesvirus 1) | Activity (Vaccinia virus) | Activity [2]
1 | NCCOCn1ccc(=O)[nH]c1=O | inactive | Low activity | Little or no activity | inactive | Little or no activity | –
2 | Cc1cn(COCCN)c(=O)[nH]c1=O | inactive | Low activity | Little or no activity | inactive | Little or no activity | –
3 | NCCOCn1cc(I)c(=O)[nH]c1=O | inactive | – | Little or no activity | inactive | Little or no activity | Low activity
4 | NCCOCn1cc(Cl)c(=O)[nH]c1=O | inactive | – | Little or no activity | inactive | Little or no activity | Low activity
5 | NCCOCn1cc(Br)c(=O)[nH]c1=O | inactive | Low activity | Little or no activity | inactive | Little or no activity | –

Reference: ChEMBL document CHEMBL1121821, “Pyrimidine acyclic nucleosides. 5-Substituted 1-[(2-aminoethoxy)methyl]uracils as candidate antivirals” (J Med Chem, 1981)
